Legend:
[1] = system: AVEFA; assay: Post-emergence herbicidal effect, greenhouse pot test; assay type: in vivo, Avena fatua; conditions: 320 g/ha, visual rating about 3 weeks after treatment
How it was run: (§1)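 Greenhouse pot test: weeds and crops sown in sandy loam, sprayed post-emergence at one-leaf stage (2–3 weeks after sowing) with WP or EC formulations plus 0.5% additive at 600 l/ha water, rates 20–320 g/ha. Visual rating about 3 weeks later versus untreated controls (100% = dead, 0% = as control).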

[2] = system: ZEAMX; assay: Post-emergence herbicidal effect and crop plant compatibility, greenhouse pot test; assay type: in vivo, Zea mays; conditions: one-leaf stage, rated visually after about 3 weeks vs untreated controls
How it was run: as §1

[3] = system: ALOMY; assay: Post-emergence herbicidal effect, greenhouse pot test; assay type: in vivo, Alopecurus myosuroides; conditions: visual rating about 3 weeks after treatment
How it was run: as §1

[4] = system: DIGSA; assay: as above; assay type: in vivo, Digitaria sanguinalis; conditions: visual rating about 3 weeks after treatment
How it was run: as §1

[5] = system: SETVI; assay: as above; assay type: in vivo, Setaria viridis
How it was run: as §1

[6] = system: AMARE; assay: as above; assay type: in vivo, Amaranthus retroflexus; conditions: visual rating about 3 weeks after treatment
How it was run: as §1

[7] = system: PHBPU; assay: as above; assay type: in vivo, Ipomoea purpurea
How it was run: as §1

[8] = system: MATIN; assay: as above; assay type: in vivo, Tripleurospermum inodorum
How it was run: as §1

[9] = system: ECHCG; assay: as above; assay type: in vivo, Echinochloa crus-galli; conditions: for Post-emergence effect against ECHCG: 20 g/ha, visual rating about 3 weeks after treatment
How it was run: as §1

[10] = system: ABUTH; assay: as above; assay type: in vivo, Abutilon theophrasti; conditions: visual rating about 3 weeks after treatment
How it was run: as §1

[11] = system: ORYSA; assay: Post-emergence herbicidal effect and crop plant compatibility, greenhouse pot test; assay type: in vivo, Oryza sativa; conditions: 20 g/ha, visual rating about 3 weeks after treatment, crop plant
Excerpt: • ALOMY: Alopecurus myosuroides SETVI: Setaria viridis • AVEFA: Avena fatua POLCO: Fallopia convolvulus • AMARE: Amaranthus retroflexus ECHCG: Echinochloa crus-galli • LOLRJ: Lolium rigidum STEME: Stellaria media • VERPE: Veronica persica MATIN: Tripleurospermum inodorum • DIGSA: Digitaria sanguinalis ABUTH: Abutylon threophrasti • TRZAS: Triticum aestivum VIOTR: Viola tricolor • BRSNW: Brassica napus ZEAMX: Zea mays • PHBPU: Ipomoea purpurea GLXMA: Glycine max • ORYSA: Oryza sativa HORMU: Hordeum murinum
Seeds of monocotyledonous and dicotyledonous weeds and crop plants are placed in sandy loam in plastic or organic planting pots, covered with soil and cultivated in a greenhouse under controlled growth conditions. 2 to 3 weeks after sowing, the trial plants are treated at the one-leaf stage. The compounds of the invention, formulated in the form of wettable powders (WP) or as emulsion concentrates (EC), are then sprayed onto the green parts of the plants as aqueous suspension or emulsion with addition of 0.5% additive at a water application rate of 600 l/ha (converted). After the test plants have been kept in the greenhouse under optimum growth conditions for about 3 weeks, the activity of the preparations is rated visually in comparison to untreated controls. For example, 100% activity=the plants have died, 0% activity=like control plants.
Tables 20a to 38c below show the effects/crop compatibilities of selected compounds of the general formula (I) on various harmful plants at an application rate corresponding to 20 to 320 g/ha, which were obtained by the trial procedure specified above.

[12] = system: LOLRI; assay: Post-emergence herbicidal effect, greenhouse pot test; assay type: in vivo, Lolium rigidum; conditions: 320 g/ha
How it was run: as §1

[13] = system: POLCO; assay: as above; assay type: in vivo, Fallopia convolvulus
How it was run: as §1

[14] = system: VIOTR; assay: as above; assay type: in vivo, Viola tricolor
How it was run: as §1

[15] = system: VERPE; assay: as above; assay type: in vivo, Veronica persica
How it was run: as §1

[16] = system: various unwanted plants; assay: Post-emergence effect against various unwanted plants (PO): comparative test of I-01 with compounds from WO2020/245044 (Tables 41a, 41b) and summary statements; assay type: in vivo; conditions: 80 g/ha, comparative test
Description: Seeds of monocotyledonous and dicotyledonous weeds and crop plants are placed in sandy loam in plastic or organic planting pots, covered with soil and cultivated in a greenhouse under controlled growth conditions. 2 to 3 weeks after sowing, the trial plants are treated at the one-leaf stage. The compounds of the invention, formulated in the form of wettable powders (WP) or as emulsion concentrates (EC), are then sprayed onto the green parts of the plants as aqueous suspension or emulsion with addition of 0.5% additive at a water application rate of 600 l/ha (converted). After the test plants have been kept in the greenhouse under optimum growth conditions for about 3 weeks, the activity of the preparations is rated visually in comparison to untreated controls. For example, 100% activity=the plants have died, 0% activity=like control plants. […] Tables 41a and 41b below show the effects of the inventive compound (I-01) with structurally similar compounds (WO2020/245044) on various harmful plants at an application rate corresponding to 320 g/ha or less, which have been obtained by the trial procedure specified hereinafter. The inventive compound (I-01) differs here by variance of a significant structural feature from the structurally similar compound with regard to the R^2 radical. Seeds of monocotyledonous and dicotyledonous weeds and crop plants are placed in sandy loam in plastic or organic planting pots, covered with soil and cultivated in a greenhouse under controlled growth conditions. 2 to 3 weeks after sowing, the trial plants are treated at the one-leaf stage. The compounds of the invention, formulated in the form of wettable powders (WP) or as emulsion concentrates (EC), are then sprayed onto the green parts of the plants as aqueous suspension or emulsion with addition of 0.5% additive at a water application rate of 600 l/ha (converted). After the test plants have been kept in the greenhouse under optimum growth conditions for about 3 weeks, the activity of the preparations is rated visually in comparison to untreated controls. For example, 100% activity=the plants have died, 0% activity=like control plants. Effects/crop compatibilities of selected compounds (see Table 39) on various harmful plants at an application rate corresponding to 80 to 320 g/ha that have been obtained by the trial procedure specified hereinafter are shown in Tables 41a and 41b below.

[17] = system: various unwanted plants; assay: Pre-emergence effect against various unwanted plants (PE): comparative test of I-01 with compounds from WO2020/245044 (Tables 40a, 40b) and summary statements; assay type: in vivo; conditions: comparative test
Excerpt: Seeds of monocotyledonous and dicotyledonous weed plants and crop plants are placed in plastic or organic planting pots and covered with soil. The compounds of the invention, formulated in the form of wettable powders (WP) or as emulsion concentrates (EC), are then applied to the surface of the covering soil as aqueous suspension or emulsion with addition of 0.5% additive at a water application rate equivalent to 600 l/ha. After the treatment, the pots are placed in a greenhouse and kept under good growth conditions for the trial plants. After about 3 weeks, the effect of the preparations is scored visually in comparison with untreated controls as percentages. For example, 100% activity=the plants have died, 0% activity=like control plants. Tables 40a and 40b below show the effects of the inventive compound (I-01) with structurally similar compounds (from WO2020/245044) on various harmful plants at an application rate corresponding to 320 g/ha or less, which have been obtained by the trial procedure specified hereinafter. The inventive compound (I-01) differs here by variance of a significant structural feature from the structurally similar compound with regard to the R^2 radical. Seeds of monocotyledonous and dicotyledonous weed plants and crop plants are placed in plastic or organic planting pots and covered with soil. The compounds of the invention, formulated in the form of wettable powders (WP) or as emulsion concentrates (EC), are then applied to the surface of the covering soil as aqueous suspension or emulsion with addition of 0.5% additive at a water application rate equivalent to 600 l/ha. After the treatment, the pots are placed in a greenhouse and kept under good growth conditions for the trial plants. After about 3 weeks, the effect of the preparations is scored visually in comparison with untreated controls as percentages. For example, 100% activity=the plants have died, 0% activity=like control plants. Effects/crop compatibilities of selected compounds (Table 39) on various harmful plants at an application rate corresponding to 80 to 320 g/ha that have been obtained by the trial procedure specified hereinabove are shown in Tables 40a and 40b below.

SMILES | Post-emergence effect against AVEFA [1] [%] | Post-emergence effect at 20 g/ha against ZEAMX in % [2] [%] | Post-emergence effect against ALOMY ([3]; 320 g/ha) [%] | Post-emergence effect against DIGSA ([4]; 320 g/ha) [%] | Post-emergence effect against SETVI in % ([5]; 80 g/ha) [%] | Post-emergence effect against SETVI in % ([5]; 320 g/ha) [%] | Post-emergence effect against AMARE ([6]; 80 g/ha) [%] | Post-emergence effect against AMARE ([6]; 320 g/ha) [%] | Post-emergence effect against PHBPU in % ([7]; 80 g/ha) [%] | Post-emergence effect against PHBPU in % ([7]; 320 g/ha) [%] | Post-emergence effect against MATIN in % ([8]; 80 g/ha) [%] | Post-emergence effect against MATIN in % ([8]; 320 g/ha) [%] | Post-emergence effect against ECHCG in % ([9]; 80 g/ha) [%] | Post-emergence effect against ECHCG in % ([9]; 320 g/ha) [%] | Post-emergence effect against ABUTH ([10]; 320 g/ha) [%] | Post-emergence effect against ORYSA [11] [%] | Post-emergence effect against POLCO in % ([13]; 320 g/ha) [%] | Post-emergence effect against VIOTR in % ([14]; 320 g/ha) [%] | Post-emergence effect against VERPE in % ([15]; 80 g/ha) [%] | Post-emergence effect against VERPE in % ([15]; 320 g/ha) [%] | further results
COC(=O)C(C)COC(=O)C(OC)Oc1nn(-c2ccccc2F)c(-c2ccc(F)nc2)c1Br (racemic) [Example I-10] | 80 | 20 | 90 | 90 | 80 | 90 | 80 | 100 | 80 | 90 | 80 | 90 | 90 | 100 | 90 | 10 | 80 | 90 | 90 | 90 | Post-emergence effect against AMARE ([6]; 20 g/ha): 80%; Post-emergence effect against MATIN in % ([8]; 20 g/ha): 80%; Post-emergence effect against ECHCG [9]: 80%; Post-emergence effect against ABUTH ([10]; 20 g/ha): 80%; Post-emergence effect against ABUTH ([10]; 80 g/ha): 90%; Post-emergence effect against LOLRI in % [12]: 90%; Post-emergence effect against POLCO in % ([13]; 20 g/ha): 80%; Post-emergence effect against POLCO in % ([13]; 80 g/ha): 80%; Post-emergence effect against VIOTR in % ([14]; 80 g/ha): 80%
COC(=O)CCOC(=O)C(OC)Oc1nn(-c2ccccc2F)c(-c2ccc(F)nc2)c1Br (single isomer, unassigned) [Example I-13] | 80 | 10 | 90 | 90 | 80 | 90 | – | 80 | – | 90 | 80 | 80 | 90 | 90 | 80 | 10 | 80 | 80 | 80 | 80 | Post-emergence effect at 80 g/ha against ZEAMX in % [2]: 20%; Post-emergence effect against ALOMY ([3]; 80 g/ha): 80%; Post-emergence effect against DIGSA ([4]; 80 g/ha): 90%; Post-emergence effect against ECHCG [9]: 80%; Post-emergence effect against LOLRI in % [12]: 80%; Post-emergence effect against POLCO in % ([13]; 80 g/ha): 80%
COC(=O)CCOC(=O)C(OC)Oc1nn(-c2ccccc2F)c(-c2ccc(F)nc2)c1Br (single isomer, unassigned) [Example I-20] | 90 | 0 | 80 | 90 | 80 | 80 | 80 | 90 | 80 | 90 | 80 | 90 | 80 | 90 | 90 | 0 | 80 | 90 | 80 | 90 | Post-emergence effect at 80 g/ha against ZEAMX in % [2]: 20%; Post-emergence effect against ABUTH ([10]; 80 g/ha): 80%; Post-emergence effect against VIOTR in % ([14]; 80 g/ha): 80%
CCOC(=O)C(F)Oc1nn(-c2ccccc2F)c(-c2ccc(F)nc2)c1Br (stereo not drawn) [C] | – | – | – | – | – | – | – | – | – | – | – | – | – | – | – | – | – | – | – | – | Post-emergence effect, Effect %, ALOMY ([16]; ALOMY): 50%; Post-emergence effect, Effect %, AVEFA ([16]; AVEFA): 60%; Post-emergence effect, Effect %, ECHCG ([16]; ECHCG): 80%; Post-emergence effect, Effect %, LOLRI ([16]; LOLRI): 10%; Post-emergence effect, Effect %, SETVI ([16]; SETVI): 70%; Pre-emergence effect, Effect %, ALOMY ([17]; ALOMY, 320 g/ha): 80%; Pre-emergence effect, Effect %, ECHCG ([17]; 80 g/ha): 0%; Pre-emergence effect, Effect %, ECHCG ([17]; 320 g/ha): 70%; Pre-emergence effect, Effect %, LOLRI ([17]; 80 g/ha): 10%; Pre-emergence effect, Effect %, LOLRI ([17]; 320 g/ha): 90%; Pre-emergence effect, Effect %, MATIN ([17]; 80 g/ha): 70%; Pre-emergence effect, Effect %, MATIN ([17]; 320 g/ha): 80%; Pre-emergence effect, Effect %, POLCO ([17]; POLCO, 80 g/ha): 50%; Pre-emergence effect, Effect %, SETVI ([17]; SETVI, 320 g/ha): 70%

Reference: patent US20240391862A1, “(1,4,5-TRISUBSTITUTED-1H-PYRAZOL-3-YL)OXY-2-ALKOXY ALKYL ACIDS AND THEIR DERIVATIVES, THEIR SALTS AND THEIR USE AS HERBICIDAL AGENTS” (Bayer AKtiengesellschaft, priority 2021, published 2024)
